According to patent publication US20180125988A1, “TARGETED XTEN CONJUGATE COMPOSITIONS AND METHODS OF MAKING SAME” (AMUNIX OPERATING INC., priority 2014, published 2018):
Where a SMILES comes first, the peptide text is derived from it. [ ]: non-standard residue; d: D form. The star is where a group is joined. Dolaproine = CO[C@@H]([C@@H]1CCCN1)[C@@H](C)C(=O)O; Dil = CC[C@H](C)[C@H](NC)[C@@H](CC(=O)O)OC; X1 = C[C@@H](N*)[C@@H](O)c1ccccc1; NMeV = CN[C@H](C(=O)O)C(C)C

Legend:
[1] = system: folate receptor-positive KB cell line; test: CellTiter-Glo anti-proliferation assay, 3xFA(γ),3xMMAE-XTEN on KB cells with or without folic acid competitor; type: cell-based; conditions: Homo sapiens, no folic acid competitor
Protocol: The ability to selectively target and kill cells bearing folate receptors was evaluated. Test articles of free MMAE, a non-targeting 3xMMAE-XTEN conjugate (XTEN linked to toxin) and the folate receptor-targeted 3xFA(γ),3xMMAE-XTEN conjugate were evaluated in a CellTiter-Glo anti-proliferation assay using the folate receptor-positive KB cell line. As culture media contain high folic acid content, KB cells were grown in folic acid-free media containing 10% heat-inactivated fetal calf serum at 37° C., 5% CO2 for at least 7 days prior to the commencement of the cell viability experiment, This medium was also utilized for the execution of the experiment. In brief, KB cells were plated at 10,000 cells per well onto a 96-well microtiter assay plate. KB cells were allowed to adhere to the plate by an overnight incubation at 37° C., 5% CO2. The spent media was then removed and wells designated to contain folic acid competitor received assay medium containing folic acid, while wells not designated to have folic acid competitor received assay medium only. The plate was incubated for 30 min at 37° C., 5% CO2 before the assay media was aspirated and plate washed with assay media. […] After the appropriate incubation period, CellTiter-Glo reagent was added and the plate was read on a luminometer. The IC50 of each test article was determined using a 4 parameter logistic curve fit using GraphPad Prism.

[2] = in Man; cited from earlier work

| Compound | IC50 [1] [pM] | half-life [2] |
| --- | --- | --- |
| CC[C@H](C)[C@@H]([C@@H](CC(=O)N1CCC[C@H]1[C@H](OC)[C@@H](C)C(=O)N[C@H](C)[C@@H](O)c1ccccc1)OC)N(C)C(=O)[C@@H](NC(=O)[C@@H](NC)C(C)C)C(C)C [MMAE, monomethyl auristatin E] (H-[NMeV]V[Dil][Dolaproine]-X1) | 800 |  |
| pyroGlu-His-Trp-Ser-Tyr-Gly-Leu-Arg-Pro-Gly-NH2 [LHRH] |  | less than 4 minutes |
